From the NIST ThermoML archive (doi:10.1021/acs.jced.7b00483)

Assay: molar heat capacity at constant pressure; mn = molality of the nth substance listed, in mol/kg
Conditions: 100 kPa, Liquid, Flow calorimetry

[Cl][Ni][Cl] [nickel chloride (NiCl2)] + O
molar heat capacity at constant pressure [J/K/mol]
Conditions | 298.15 K | 303.15 K | 313.15 K | 323.15 K | 333.15 K | 343.15 K | 353.15 K | 363.15 K
m1 = 0.1432 | 74.53 | 74.56 | 74.64 | 74.73 | 74.84 | 74.97 | 75.09 | 75.24
m1 = 0.3571 | 73.64 | 73.75 | 73.98 | 74.17 | 74.3 | 74.41 | 74.48 | 74.5
m1 = 0.7035 | 72.08 | 72.41 | 72.91 | 73.42 | 73.73 | 73.92 | 73.96 | 73.88
m1 = 0.9968 | 70.92 | 71.28 | 71.88 | 72.38 | 72.74 | 72.98 | 73.12 | 73.12
m1 = 1.24 | 70.61 | 70.99 | 71.67 | 72.22 | 72.63 | 72.92 | 73.06 | 73.08
m1 = 1.53 | 70.09 | 70.49 | 71.18 | 71.73 | 72.15 | 72.44 | 72.59 | 72.59
m1 = 1.874 | 69.74 | 70.16 | 70.89 | 71.5 | 71.93 | 72.23 | 72.41 | 72.45
m1 = 2.241 | 69.49 | 69.96 | 70.74 | 71.39 | 71.88 | 72.2 | 72.37 | 72.4
m1 = 2.608 | 69.48 | 69.99 | 70.89 | 71.63 | 72.2 | 72.64 | 72.89 | 72.98
m1 = 3.614 | 69.27 | 69.86 | 70.88 | 71.73 | 72.42 | 72.94 | 73.29 | 73.49
m1 = 4.102 | 69.42 | 70.04 | 71.12 | 72.02 | 72.69 | 73.18 | 73.48 | 73.56

[Cl][Cu][Cl] [copper chloride] + O
molar heat capacity at constant pressure [J/K/mol]
Conditions | 298.15 K | 303.15 K | 313.15 K | 323.15 K | 333.15 K | 343.15 K | 353.15 K | 363.15 K
m1 = 0.2971 | 74.06 | 74.34 | 74.86 | 75.29 | 75.6 | 75.85 | 75.98 | 76.05
m1 = 0.5433 | 73.82 | 74.14 | 74.68 | 75.1 | 75.41 | 75.6 | 75.69 | 75.68
m1 = 0.7083 | 73.51 | 73.84 | 74.42 | 74.85 | 75.16 | 75.34 | 75.34 | 75.3
m1 = 1.018 | 73.01 | 73.37 | 74 | 74.48 | 74.86 | 75.1 | 75.24 | 75.22
m1 = 1.448 | 72.53 | 72.93 | 73.62 | 74.19 | 74.61 | 74.9 | 75.05 | 75.05
m1 = 1.899 | 72.05 | 72.47 | 73.19 | 73.8 | 74.24 | 74.59 | 74.74 | 74.78
m1 = 2.012 | 72.27 | 72.71 | 73.51 | 74.13 | 74.61 | 74.94 | 75.12 | 75.12
m1 = 2.424 | 72.23 | 72.74 | 73.63 | 74.38 | 74.96 | 75.37 | 75.64 | 75.73
m1 = 2.954 | 72.36 | 72.91 | 73.85 | 74.59 | 75.16 | 75.52 | 75.71 | 75.71
m1 = 3.454 | 72.47 | 73.05 | 74.06 | 74.93 | 75.63 | 76.15 | 76.52 | 76.67
m1 = 4.036 | 72.69 | 73.32 | 74.4 | 75.31 | 76.01 | 76.5 | 76.79 | 76.89
m1 = 4.452 | 72.71 | 73.37 | 74.54 | 75.48 | 76.17 | 76.62 | 76.81 | 76.78
